How the values were obtained:
PRMT1 [1] = target: T1, PRMT1 (Rattus norvegicus, UniProt Q63009); assay: Radioactive methyltransferase assay, PRMT1; format: biochemical; details: for IC50: IC50, His6x-PRMT1 0.05 μM, 2 μM H4(1-20), 5 μM [14C]-SAM, 30°C
PRMT4/CARM1 = target: T2, PRMT4/CARM1 (Mus musculus, UniProt Q9WVG6); assay: Radioactive methyltransferase assay, CARM1; format: biochemical
T2 sequence (Q9WVG6 1-608): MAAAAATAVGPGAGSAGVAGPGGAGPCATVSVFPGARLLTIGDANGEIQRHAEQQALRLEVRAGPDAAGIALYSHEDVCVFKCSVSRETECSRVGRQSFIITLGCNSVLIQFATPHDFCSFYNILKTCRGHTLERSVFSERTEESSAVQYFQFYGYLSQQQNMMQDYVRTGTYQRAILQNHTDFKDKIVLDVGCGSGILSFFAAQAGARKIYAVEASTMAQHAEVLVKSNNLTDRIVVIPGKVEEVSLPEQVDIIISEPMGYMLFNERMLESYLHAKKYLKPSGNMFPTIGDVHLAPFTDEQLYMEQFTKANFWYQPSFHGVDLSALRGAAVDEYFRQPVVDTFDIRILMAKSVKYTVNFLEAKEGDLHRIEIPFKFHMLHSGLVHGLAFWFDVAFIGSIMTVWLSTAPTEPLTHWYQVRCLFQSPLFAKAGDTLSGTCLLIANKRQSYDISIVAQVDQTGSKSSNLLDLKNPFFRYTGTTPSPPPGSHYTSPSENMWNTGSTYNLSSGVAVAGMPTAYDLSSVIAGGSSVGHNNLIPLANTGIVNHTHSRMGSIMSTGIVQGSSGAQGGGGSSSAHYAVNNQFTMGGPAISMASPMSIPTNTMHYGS

PRMT1 [2] = target: T1, PRMT1; assay: Dialysis experiment and time-dependent inhibition; format: biochemical; details: dialysis and time-dependent inhibition (0, 1.5, 2.5, 4.0 μM)
PRMT1 Y152A = PRMT1 Y152A (Rattus norvegicus, UniProt Q63009, Y152A); assay: Radioactive methyltransferase assay, PRMT1 mutant Y152A; format: biochemical; details: 4 μM inhibitor, 2 μM H4-20, 5 μM [14C]AdoMet
HeLa cells = assay: Cell cycle assay by flow cytometry; format: cell-based; details: 48 h of treatment at 2.5 and 5 μM (data not shown)

T1 sequence (Q63009 whole entry): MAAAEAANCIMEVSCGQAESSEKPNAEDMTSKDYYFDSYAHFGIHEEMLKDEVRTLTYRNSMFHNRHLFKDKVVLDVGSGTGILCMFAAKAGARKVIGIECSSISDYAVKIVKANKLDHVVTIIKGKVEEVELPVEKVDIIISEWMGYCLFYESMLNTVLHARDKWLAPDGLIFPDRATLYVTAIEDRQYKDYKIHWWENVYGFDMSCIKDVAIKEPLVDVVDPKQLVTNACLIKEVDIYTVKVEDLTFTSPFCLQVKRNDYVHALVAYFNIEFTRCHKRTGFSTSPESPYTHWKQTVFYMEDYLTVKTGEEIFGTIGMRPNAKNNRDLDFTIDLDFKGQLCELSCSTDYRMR
Sequence of PRMT1 Y152A (Q63009 whole entry Y152A): as the sequence (Q63009 whole entry) above, with Y152A counted along it

CCCCN1/C(=C\C=C\C2=[N+](CCCC)c3ccc4ccccc4c3C2(C)C)C(C)(C)c2c1ccc1ccccc21 [compound 26]
IC50 (PRMT1 [1]): 18 ± 0.5 µM

CCn1/c(=C\C=C\C2=[N+](CC)c3cccc4cccc2c34)c2cccc3cccc1c32.[I-] [compound 11, 1-ethyl-2-[3-(1-ethylbenz[c,d]indol-2(1H)-ylidene)-1-propen-1-yl]-iodide]
kinetic pattern of inhibition (PRMT1 [1]; steady-state kinetics, with regard to both H4 and AdoMet substrates): noncompetitive inhibitor | IC50 (PRMT4/CARM1): ~100 µM | reversible vs irreversible inhibition (PRMT1 [2]): reversible | inhibition of Y152A PRMT1 compared with wt-PRMT1 (PRMT1 Y152A): same potency as is for wt-PRMT1 | Sub-G1 population, indicative of apoptosis (HeLa cells): appearance of a hypodiploid peak (Sub-G1) was observed

CCN1/C(=C\C=C\C2=[N+](CC)c3ccccc3C2(C)C)C(C)(C)c2ccccc21 [compound 22]
IC50 (PRMT1 [1]): 284 ± 3.5 µM

C(/C=C/C1=[N+](CCCc2ccccc2)c2cccc3cccc1c23)=c1\c2cccc3cccc(c32)n1CCCc1ccccc1 [compound 13, 1-phenylpropyl-2-[3-(1-phenylpropylbenz[c,d]indol-2(1H)-ylidene)-1-propen-1-yl]iodide]
IC50 (PRMT1 [1]): 15.5 ± 0.2 µM

CCCCn1/c(=C\C=C\C2=[N+](CCCC)c3cccc4cccc2c34)c2cccc3cccc1c32 [compound 12, 1-butyl-2-[3-(1-butyllbenz[c,d]indol-2(1H)-ylidene)-1-propen-1-yl]-iodide]
IC50 (PRMT1 [1]): 12 ± 0.5 µM

CC1(C)C(/C=C/C=C2/N(CCCc3ccccc3)c3ccc4ccccc4c3C2(C)C)=[N+](CCCc2ccccc2)c2ccc3ccccc3c21 [compound 27]
IC50 (PRMT1 [1]): 14.3 ± 0.2 µM

CC1(C)C(/C=C/C=C2/N(CCC[N+](C)(C)C)c3ccc(Br)cc3C2(C)C)=[N+](CCC[N+](C)(C)C)c2ccc(Br)cc21 [compound 29]
IC50 (PRMT1 [1]): 292 ± 40.1 µM

CCN1/C(=C/C=C/C2=[N+](CC)c3ccc4ccccc4c3C2(C)C)C(C)(C)c2c1ccc1ccccc21 [compound 25]
IC50 (PRMT1 [1]): 20.3 ± 0.2 µM

Reference: publication PMC4151304 (European journal of medicinal chemistry, 2012)
